Data taken from ChEMBL document CHEMBL5725742, “Imidazopyridazine derivatives as PI3KB inhibitors” (2018).

Legend:
[1] = (§1) KINOMEscan Enzyme Binding Assays: Kinase enzyme binding affinities of compounds disclosed herein were determined using the KINOMEscan technology performed by DiscoveRx Corporation, San Diego, Calif., USA (www.kinomescan.com).
[2] = biological target: T1, Phosphatidylinositol 4,5-bisphosphate 3-kinase catalytic subunit delta isoform (Homo sapiens, UniProt O00329); test: as §1
T1 sequence (O00329 whole entry): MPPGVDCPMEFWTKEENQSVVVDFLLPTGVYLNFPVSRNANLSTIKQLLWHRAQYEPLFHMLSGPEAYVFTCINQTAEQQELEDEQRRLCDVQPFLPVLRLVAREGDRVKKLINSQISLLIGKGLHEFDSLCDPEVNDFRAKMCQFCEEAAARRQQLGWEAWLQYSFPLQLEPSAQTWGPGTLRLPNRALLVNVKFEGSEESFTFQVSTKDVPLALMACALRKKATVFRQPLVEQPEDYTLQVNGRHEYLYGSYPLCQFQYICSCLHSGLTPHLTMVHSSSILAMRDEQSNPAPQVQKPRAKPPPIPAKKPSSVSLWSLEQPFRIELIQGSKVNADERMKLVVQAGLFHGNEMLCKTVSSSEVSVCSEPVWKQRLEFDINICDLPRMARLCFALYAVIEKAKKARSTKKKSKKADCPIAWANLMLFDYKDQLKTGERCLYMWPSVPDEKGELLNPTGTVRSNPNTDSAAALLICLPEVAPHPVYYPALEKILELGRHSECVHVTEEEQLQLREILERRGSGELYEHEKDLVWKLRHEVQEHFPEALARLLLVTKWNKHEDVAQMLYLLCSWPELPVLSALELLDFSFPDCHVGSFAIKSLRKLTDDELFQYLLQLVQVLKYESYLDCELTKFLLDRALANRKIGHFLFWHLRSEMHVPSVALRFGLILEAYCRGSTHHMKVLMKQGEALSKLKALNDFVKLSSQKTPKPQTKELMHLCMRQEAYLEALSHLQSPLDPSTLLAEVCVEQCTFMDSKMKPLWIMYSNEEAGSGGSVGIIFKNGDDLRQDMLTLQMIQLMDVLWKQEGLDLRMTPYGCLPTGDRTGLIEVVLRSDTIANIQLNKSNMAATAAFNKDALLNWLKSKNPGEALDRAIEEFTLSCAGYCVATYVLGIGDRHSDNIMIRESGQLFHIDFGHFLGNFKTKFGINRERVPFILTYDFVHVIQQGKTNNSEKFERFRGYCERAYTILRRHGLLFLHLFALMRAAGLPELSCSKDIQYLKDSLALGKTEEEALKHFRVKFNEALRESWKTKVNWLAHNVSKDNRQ

[3] = biological target: Phosphatidylinositol 4,5-bisphosphate 3-kinase catalytic subunit gamma isoform (Homo sapiens, UniProt P48736); test: as §1
Sequence of Phosphatidylinositol 4,5-bisphosphate 3-kinase catalytic subunit gamma isoform (P48736 whole entry, canonical isoform): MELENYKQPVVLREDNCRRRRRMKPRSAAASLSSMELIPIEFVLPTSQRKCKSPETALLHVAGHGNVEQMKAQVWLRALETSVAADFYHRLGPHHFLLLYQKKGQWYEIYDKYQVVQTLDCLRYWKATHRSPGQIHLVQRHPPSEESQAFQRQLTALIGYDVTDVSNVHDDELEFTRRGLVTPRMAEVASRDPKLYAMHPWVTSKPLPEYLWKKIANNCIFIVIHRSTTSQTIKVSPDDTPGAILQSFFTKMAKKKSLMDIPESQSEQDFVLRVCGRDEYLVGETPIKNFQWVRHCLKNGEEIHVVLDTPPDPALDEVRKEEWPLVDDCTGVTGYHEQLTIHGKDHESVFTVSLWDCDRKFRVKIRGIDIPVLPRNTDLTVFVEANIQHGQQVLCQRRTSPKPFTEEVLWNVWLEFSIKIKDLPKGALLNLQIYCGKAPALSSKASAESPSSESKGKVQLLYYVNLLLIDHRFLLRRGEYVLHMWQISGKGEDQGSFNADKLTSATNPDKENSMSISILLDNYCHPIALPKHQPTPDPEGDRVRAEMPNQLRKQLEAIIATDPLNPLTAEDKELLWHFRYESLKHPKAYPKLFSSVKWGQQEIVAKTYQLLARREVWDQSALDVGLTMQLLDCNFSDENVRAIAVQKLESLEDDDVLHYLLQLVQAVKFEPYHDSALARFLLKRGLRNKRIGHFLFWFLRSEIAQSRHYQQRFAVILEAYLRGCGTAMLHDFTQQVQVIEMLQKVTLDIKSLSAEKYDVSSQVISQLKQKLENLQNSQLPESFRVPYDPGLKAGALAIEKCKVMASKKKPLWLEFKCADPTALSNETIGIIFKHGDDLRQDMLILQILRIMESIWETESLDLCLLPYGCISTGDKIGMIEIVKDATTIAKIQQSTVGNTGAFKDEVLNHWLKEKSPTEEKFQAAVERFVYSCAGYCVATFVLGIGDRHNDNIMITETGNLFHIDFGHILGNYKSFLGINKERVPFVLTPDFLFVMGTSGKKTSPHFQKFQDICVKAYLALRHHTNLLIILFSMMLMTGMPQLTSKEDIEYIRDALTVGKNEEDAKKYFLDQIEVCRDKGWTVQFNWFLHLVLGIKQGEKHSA

Kd [1] | Kd [2] | Kd [3] | SMILES
> 30200 nM | – | – | CC(CO)NCc1c(F)cccc1Cc1c(CO)nc2c(N)cc(N3CCOCC3)nn12 (stereo not given)
– | 427 nM | 724 nM | CCc1c(F)cccc1Cc1c(CNCCO)nc2c(N)cc(N3CCOCC3)nn12
– | 80 nM | 1760 nM | Cc1c(Cc2c(CO)nc3c(-c4cnc[nH]4)cc(N4CCOCC4)nn23)cccc1C(F)(F)F
